Experimental data as given in patent publication US6849635B2, “Sulfonamides” (SmithKline Beecham Corporation, priority 2001, dated 2005).

Key:
[1] = target: T1, cloned human and rat GPR-14 (UniProt Q9UKP6); experiment: Radioligand binding, [125I] h-U-II on HEK-293 cell membranes; conditions: HEK-293 cell membranes with stable cloned GPR-14, 200 pM [125I] h-U-II; species of receptor not given
T1 sequence (Q9UKP6 1-389): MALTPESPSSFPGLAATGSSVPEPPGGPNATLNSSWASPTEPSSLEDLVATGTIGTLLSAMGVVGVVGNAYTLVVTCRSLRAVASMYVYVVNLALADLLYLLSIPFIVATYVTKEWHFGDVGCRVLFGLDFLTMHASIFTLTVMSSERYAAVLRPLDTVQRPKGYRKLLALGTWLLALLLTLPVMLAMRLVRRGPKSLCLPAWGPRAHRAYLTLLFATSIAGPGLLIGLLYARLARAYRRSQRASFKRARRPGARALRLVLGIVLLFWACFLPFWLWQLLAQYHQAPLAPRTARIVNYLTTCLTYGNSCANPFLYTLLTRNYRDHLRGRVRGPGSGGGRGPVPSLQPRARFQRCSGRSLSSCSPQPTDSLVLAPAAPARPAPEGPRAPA
Method: HEK-293 cell membranes containing stable cloned human and rat GPR-14 (20 ug/assay) were incubated with 200 pM [125I] h-U-II (200 Ci/mmol^−1 in the presence of increasing concentrations of test compounds in DMSO (0.1 nM to 10 uM), in a final incubation volume of 200 ul (20 mM Tris-HCl, 5 mM MgCl2). Incubation was done for 30 minutes at room temperature followed by filtration GF/B filters with Brandel cell harvester. ^125I labeled U-II binding was quantitated by gamma counting. Nonspecific binding was defined by ^125I U-II binding in the presence of 100 nM of unlabeled human U-II. Analysis of the data was performed by nonlinear least square fitting.

| Structure (SMILES) | melting point | Ki [1] [nM] |
| --- | --- | --- |
| CN(C)CCOc1cc(NS(=O)(=O)c2ccc(Oc3cccc(Cl)c3C#N)cc2)ccc1Cl [Example 1, 4-(3-Chloro-2-cyano-phenoxy)N-[4-chloro-3-(2-dimethylamino-ethoxy)-phenyl]-benzenesulfonamide] | 103 to 106 °C (dec.) | – |
| CCN(CC)CCOc1cc(NS(=O)(=O)c2cc(Cl)c(Oc3ccc([N+](=O)[O-])cc3Cl)c(Cl)c2)ccc1Cl [Example 19, 3,5-Dichloro-N-[4-chloro-3-(2-diethylamino-ethoxy)-phenyl]-4-(2-chloro-4-nitro-phenoxy)-benzenesulfonamide] | – | 520 |
